This passage reports EC50 results from patent publication US8778973B2, “Alkene oxindole derivatives” (Hoffmann-La Roche Inc., priority 2009, dated 2014).

For this experiment, the system named is Recombinant human AMPK proteins (α1β1γ1, α2β1γ1, α1(1-335), α1(1-394) or α2(1-394)). Nature of the experiment: Scintillation Proximity Assay (SPA) of AMPK activation. The class given is biochemical. The following applies: activator concentration for 50% of maximal enzyme activity; 50 nM recombinant AMPK, 2 μM ATP, 30° C., 2 hr. The protocol:
Recombinant human AMPK α1β1γ1, α2β1γ1 or AMPK α subunit truncations α1(1-335), α1(1-394) and α2(1-394) were constructed, expressed and purified as described previously (Pang, T., Zhang, Z. S., Gu, M., Qiu, B. Y., Yu, L. F., Cao, P. R., Shao, W., Su, M. B., Li, J. Y., Nan, F. J., and Li, J. (2008)). Rat liver AMPK heterotrimer enzyme was obtained from Upstate (Billerica, Mass., U.S.A.).
Scintillation Proximity Assay
Before the Scintillation Proximity Assay (SPA) assay, 200 nM recombinant AMPK proteins (α1β1γ1, α2β1γ1, α1(1-335), α1(1-394) or α2(1-394)) were fully phosphorylated as described previously (Pang et al., 2008). SPA reactions were performed in 96-well plates at a final volume of 501 containing 20 mM Tris-HCl pH 7.5, 5 mM MgCl2, 1 mM DTT, 2 μM biotin-SAMS, 2 μM ATP, 0.2 μCi/well [γ-^33P]ATP, and various amount of activator. Reactions were initiated by the addition of 50 nM recombinant AMPK proteins to the reaction solutions and incubated at 30° C. for 2 hr. After that, reactions were terminated by the addition of 401 stop solution containing 80 μg streptavidin-coated SPA beads per well, 50 mM EDTA, 0.1% Triton X-100 in PBS, pH 7.5 and incubated for 1 hr. Finally, a 160 ul suspension solution containing 2.4 M CsCl, 50 mM EDTA, and 0.1% Triton X-100 in PBS (pH 7.5) was added to the reaction solution to suspend SPA beads completely. SPA signals were determined with a Wallac MicroBeta plate counter (PerkinElmer) 30 min later for calculation of the amount of product formed. The amount of products formed in 2 hr was plotted against activator concentrations to determine the effective concentration of the activator (EC50) required for 50% of maximal enzyme activity.
Compounds as described above have EC50 values between 0.5 uM and 50 uM, preferred compounds have EC50 values between 0.5 uM and 10 uM, particularly preferred compounds have EC50 values between 0.5 uM and 1 uM.
(Scintillation proximity formats need no separation of bound from free tracer.)

Consider `CCOC(=O)c1cccc(N2C(=O)/C(=C(\C)c3ccccc3)c3ccccc32)c1` [Example 1, 3-[2-Oxo-3-(1-phenyl-ethylidene)-2,3-dihydro-indol-1-yl]-benzoic acid ethyl ester], for which the EC50 (commonly the concentration needed to bring the measured effect to its halfway point) amounted to 2210 nM.

Take `COC(=O)Cc1cccc(N2C(=O)/C(=C(\C)c3ccccc3)c3ccccc32)c1` [Example 2, (3-{2-Oxo-3-[1-phenyl-eth-(E)-ylidene]-2,3-dihydro-indol-1-yl}-phenyl)-acetic acid methyl ester]: the EC50 came to 1490 nM. Regarding `COC(=O)c1cc(N2C(=O)/C(=C(\C)c3ccccc3)c3ccccc32)ccc1C` [Example 3, 2-Methyl-5-{2-oxo-3-[1-phenyl-eth-(E)-ylidene]-2,3-dihydro-indol-1-yl}-benzoic acid methyl ester], the half-maximal effective concentration (EC50) is 5610 nM.

In the case of `C/C(=C1\C(=O)N(CC(=O)O)c2ccccc21)c1ccccc1` [Example 4, [2-Oxo-3-(1-phenyl-ethylidene)-2,3-dihydro-indol-1-yl]-acetic acid], the EC50 stood at 5250 nM. Regarding `COC(=O)c1cccc(CN2C(=O)/C(=C(\c3ccccc3)c3ccc(Cl)cc3)c3ccccc32)c1` [Example 5, 3-((3-((4-Chlorophenyl)(phenyl)meth-(E)-ylene)-2-oxoindolin-1-yl)methyl)benzoic acid methyl ester], the concentration giving a half-maximal response (EC50) was determined as 2300 nM. `COC(=O)c1cccc(CN2C(=O)/C(=C(\c3ccccc3)c3ccc(Cl)cc3)c3cccc(F)c32)c1` [Example 6, 3-{3-[1-(4-Chloro-phenyl)-1-phenyl-meth-(E)-ylidene]-7-fluoro-2-oxo-2,3-dihydro-indol-1-ylmethyl}-benzoic acid methyl ester]: the half-maximal effective concentration (EC50) turned out to be 1510 nM. As for `COC(=O)c1cccc(CN2C(=O)C(=C(c3ccccc3)c3ccccc3)c3ccccc32)c1` [Example 7, 3-(3-Benzhydrylidene-2-oxo-2,3-dihydro-indol-1-ylmethyl)-benzoic acid methyl ester], the EC50 amounted to 1540 nM. Take `COC(=O)c1cccc(CN2C(=O)/C(=C(\c3ccccc3)c3ccc(OC)cc3)c3ccccc32)c1` [Example 8, 3-{3-[1-(4-Methoxy-phenyl)-1-phenyl-meth-(E)-ylidene]-2-oxo-2,3-dihydro-indol-1-ylmethyl}-benzoic acid methyl ester]: the EC50 is 6470 nM. `COC(=O)c1cccc(CN2C(=O)/C(=C(\c3ccccc3)c3ccc(C)cc3)c3ccccc32)c1` [Example 9, 3-{2-Oxo-3-[1-phenyl-1-p-tolyl-meth-(E)-ylidene]-2,3-dihydro-indol-1-ylmethyl}-benzoic acid methyl ester]: the EC50 was 2160 nM. On to `COC(=O)c1cccc(CN2C(=O)/C(=C(/c3ccc(Cl)cc3)c3ccccc3OC)c3ccccc32)c1` [Example 10, 3-{3-[1-(4-Chloro-phenyl)-1-(2-methoxy-phenyl)-meth-(Z)-ylidene]-2-oxo-2,3-dihydro-indol-1-ylmethyl}-benzoic acid methyl ester], for which the concentration for a half-maximal effect (EC50) was 4440 nM. On to `COC(=O)c1cccc(CN2C(=O)/C(=C(\c3ccccc3)c3ccc(C#N)cc3)c3ccccc32)c1` [Example 11, 3-{3-[1-(4-Cyano-phenyl)-1-phenyl-meth-(E)-ylidene]-2-oxo-2,3-dihydro-indol-1-ylmethyl}-benzoic acid methyl ester], for which the EC50 came to 3110 nM.

For the compound `COC(=O)c1cccc(CN2C(=O)/C(=C(\c3ccccc3)c3ccc(C(F)(F)F)cc3)c3ccccc32)c1` [Example 12, 3-{2-Oxo-3-[1-phenyl-1-(4-trifluoromethyl-phenyl)-meth-(E)-ylidene]-2,3-dihydro-indol-1-ylmethyl}-benzoic acid methyl ester], the half-maximal effective concentration (EC50) was 5340 nM.

Turning to `COC(=O)c1cccc(CN2C(=O)/C(=C(\c3ccccc3)c3ccc(F)c(Cl)c3)c3ccccc32)c1` [Example 13, 3-{3-[1-(3-Chloro-4-fluoro-phenyl)-1-phenyl-meth-(E)-ylidene]-2-oxo-2,3-dihydro-indol-1-ylmethyl}-benzoic acid methyl ester], the concentration giving a half-maximal response (EC50) was 1860 nM. Turning to `COC(=O)c1cccc(CN2C(=O)/C(=C(\c3ccccc3)c3cc(OC)c(OC)c(OC)c3)c3ccccc32)c1` [Example 14, 3-{2-Oxo-3-[1-phenyl-1-(3,4,5-trimethoxy-phenyl)-meth-(E)-ylidene]-2,3-dihydro-indol-1-ylmethyl}-benzoic acid methyl ester], the EC50 was 4340 nM.

For `COC(=O)c1cccc(CN2C(=O)/C(=C(\c3ccccc3)c3ccc(F)c(F)c3)c3ccccc32)c1` [Example 15, 3-{3-[1-(3,4-Difluoro-phenyl)-1-phenyl-meth-(E)-ylidene]-2-oxo-2,3-dihydro-indol-1-ylmethyl}-benzoic acid methyl ester], the EC50 was 2470 nM. `COC(=O)c1cccc(CN2C(=O)/C(=C(\c3ccccc3)c3cccc(Cl)c3)c3ccccc32)c1` [Example 16, 3-{3-[1-(3-Chloro-phenyl)-1-phenyl-meth-(E)-ylidene]-2-oxo-2,3-dihydro-indol-1-ylmethyl}-benzoic acid methyl ester]: the EC50 is 1530 nM.

As for `COC(=O)c1cccc(CN2C(=O)/C(=C(\c3ccccc3)c3ccccc3Cl)c3ccccc32)c1` [Example 17, 3-{3-[1-(2-Chloro-phenyl)-1-phenyl-meth-(E)-ylidene]-2-oxo-2,3-dihydro-indol-1-ylmethyl}-benzoic acid methyl ester], the concentration for a half-maximal effect (EC50) came to 2340 nM. To `COC(=O)c1cccc(CN2C(=O)/C(=C(\c3ccccc3)c3ccc(Cl)cc3)c3cc(F)ccc32)c1` [Example 18, 3-{3-[1-(4-Chloro-phenyl)-1-phenyl-meth-(E)-ylidene]-5-fluoro-2-oxo-2,3-dihydro-indol-1-ylmethyl}-benzoic acid methyl ester] belongs 5660 nM; to `COC(=O)c1cccc(CN2C(=O)/C(=C(\c3ccccc3)c3cc(Cl)cc(Cl)c3)c3ccccc32)c1` [Example 19, 3-{3-[1-(3,5-Dichloro-phenyl)-1-phenyl-meth-(E)-ylidene]-2-oxo-2,3-dihydro-indol-1-ylmethyl}-benzoic acid methyl ester], 1000 nM. With `COC(=O)c1cccc(CN2C(=O)/C(=C(\c3ccccc3)c3cccc(Cl)c3Cl)c3ccccc32)c1` [Example 20, 3-{3-[1-(2,3-Dichloro-phenyl)-1-phenyl-meth-(E)-ylidene]-2-oxo-2,3-dihydro-indol-1-ylmethyl}-benzoic acid methyl ester], the EC50 amounted to 1760 nM.

Regarding `COC(=O)c1ccc(CN2C(=O)/C(=C(\c3ccccc3)c3ccc(Cl)cc3)c3ccccc32)cc1` [Example 21, 4-{3-[1-(4-Chloro-phenyl)-1-phenyl-meth-(E)-ylidene]-2-oxo-2,3-dihydro-indol-1-ylmethyl}-benzoic acid methyl ester], the half-maximal effective concentration (EC50) amounted to 6070 nM.

For `COC(=O)c1cccc(CN2C(=O)/C(=C(\c3ccccc3)c3ccc(Cl)cc3)c3cc(OC)ccc32)c1` [Example 22, 3-{3-[1-(4-Chloro-phenyl)-1-phenyl-meth-(E)-ylidene]-5-methoxy-2-oxo-2,3-dihydro-indol-1-ylmethyl}-benzoic acid methyl ester], the EC50 came to 4130 nM. With `COC(=O)c1cccc(CN2C(=O)/C(=C(\c3ccccc3)c3ccccc3Br)c3ccccc32)c1` [Example 23, 3-{3-[1-(2-Bromo-phenyl)-1-phenyl-meth-(E)-ylidene]-2-oxo-2,3-dihydro-indol-1-ylmethyl}-benzoic acid methyl ester], the concentration for a half-maximal effect (EC50) stood at 6970 nM.

On to `COC(=O)c1cccc(CN2C(=O)/C(=C(\c3ccccc3)c3cc(C(F)(F)F)ccc3Cl)c3ccccc32)c1` [Example 24, 3-{3-[1-(2-Chloro-5-trifluoromethyl-phenyl)-1-phenyl-meth-(E)-ylidene]-2-oxo-2,3-dihydro-indol-1-ylmethyl}-benzoic acid methyl ester], for which the EC50 is 4820 nM.

Regarding `COC(=O)c1cccc(CN2C(=O)/C(=C(\c3ccccc3)c3ccc(Cl)cc3)c3c(F)cccc32)c1` [Example 25, 3-{3-[1-(4-Chloro-phenyl)-1-phenyl-meth-(E)-ylidene]-4-fluoro-2-oxo-2,3-dihydro-indol-1-ylmethyl}-benzoic acid methyl ester], the concentration for a half-maximal effect (EC50) stood at 2730 nM. Turning to `COC(=O)c1cccc(CN2C(=O)/C(=C(\c3ccccc3)c3ccc(Cl)cc3)c3ccc(F)cc32)c1` [Example 26, 3-{3-[1-(4-Chloro-phenyl)-1-phenyl-meth-(E)-ylidene]-6-fluoro-2-oxo-2,3-dihydro-indol-1-ylmethyl}-benzoic acid methyl ester], the 50% effective concentration (EC50) came out at 1250 nM.
